Read-outs that look alike come from different tables or passages of the source.
Legend:
Format in all cases: cell-based
[1] = test system: costimulatory molecules of LPS-stimulated human dendritic cells; assay: Costimulatory molecules on LPS-stimulated human monocyte-derived dendritic cells (flow cytometry); details: Dendritic cell, 24 h, LPS 0.1 μg/ml, D-amino acid 10 μM, mean ± SD of three experiments, relative to LPS-induced expression
Method: Generation of human monocyte-derived dendritic cells. Peripheral venous blood was obtained from healthy volunteers aged between 20 and 50 years after informed consent. Individuals with allergic disease, acute infection or taking any medication 20 days prior to blood sampling or any history of smoking (personal interview) were excluded prior to blood sampling. All experiments were conducted according to the principles expressed in the Declaration of Helsinki.
(§1) Peripheral blood mononuclear cells (PBMC) were isolated from heparinized whole blood by density gradient centrifugation (2000 rpm, 22° C., 20 min) (Biocoll, Biochrom AG, Berlin, Germany). […] Purity and viability of DCs was assessed by flow cytometry (FIG. 9A-C).
Costimulatory molecules on human DCs. The following primary monoclonal antibodies were used: CD83 fluorescein isothiocyanate (FITC); CD1a phycoerythrin (PE); CD86-FITC; CD80-PE; CD14 allophycocyanine (APC); CD40-APC; CD3-peridinin chlorophyll protein (PerCP); HLA-DR-PerCP; mouse immunoglobulins G1 (IgG1) mouse immunoglobulins G1 (IgG1) κ were used as isotype controls using the corresponding fluorochromes (all purchased from BD Biosciences, Heidelberg, Germany). To account for donor dependent variability of DC surface markers, all data were normalized to the expression induced by LPS which was set to 100% after subtraction of background values (FACS Canto, FACS DIVA software, Version 5.0.3, BD Biosciences, Heidelberg, Germany). Murine DC subsets and CD4^+ T cells. Single cell suspensions of splenocytes were obtained by filtering spleens through a 70 μm strainer. Samples were stained with CD3-PB (1:200, Biolegend, San Diego, USA), CD4-APC-H7 (BD, 1:400), CD11c-APC-Cy7 (1:100), Mhc-II-Percp-Cy5 (1:100), CD11b-FITC (1:100), CD80-AF647, CD40-APC (1:100). For intracellular cytokines, total spleen cells were stimulated with anti-CD3 (4 μg/mL, BD Bioscience, Heidelberg, Germany) and anti-CD28 (30 ng/mL, BD Bioscience, Heidelberg, Germany) for 16 h. 1×10^6 of total lung cells were stimulated for 16 h with MACSiBead particles coated with anti-CD3 and anti-CD28 using the T cell activation/expansion kit (Miltenyi Biotec, Bergisch Gladbach, Germany) in TexMACS medium (Miltenyi Biotec) according to the manufactures recommendations. Prior to staining, cells were treated with monensin (0.7 μL/mL, BD Golgi Stop, BD Bioscience, Heidelberg, Germany) for 6 h at 37° C. and intracellularly stained for II-4-PE (1:100, eBioscience, Vienna, Austria according to the manufacturer's protocols. Intracellular staining for Foxp3 was performed by using the Foxp3/Transcription Factor Staining buffer set (eBiosciences, Vienna, Austria) according to the manufacturer's recommendations.
Bioassays for screening for immune modulatory activity in probiotic supernatants. Two biological assays based on down-modulation of costimulatory molecules on human DCs, and of CCL17-secretion by a human Hodgkin lymphoma T cell line (KM-H2) were set up. Human immature DCs were matured with 0.1 μg/mL lipopolysaccharide (LPS) from E. coli (Sigma-Aldrich, St. Louis, USA) in the presence or absence of 200 μL bacteria free supernatants for 24 h followed by flow cytometric analysis of costimulatory molecules.

human LPS treated DCs = assay: Cytokine secretion of human DCs (multiplex assay); details: for IFN-g / IL-5 / IL-10 / IL-12: 200 μl supernatant or amino acid 10 μM, 14 h
Method: as §1
[…] For probiotic supernatants, blank CDM1 was used as medium control. […] IL-5, IFN-gamma, IL-12, and IL-10, were quantified by a multiplex assay (Milliplex Human Cytokine Immunoassay, Millipore GMbH Schalbach, Germany) as described by the manufacturer.

[2] = test system: CCL17 secretion of human Hodgkin lymphoma KM-H2 cells; assay: CCL17 secretion bioassay with KM-H2 cells (ELISA); details: different concentrations, 24 h
Method: Human T cell line KM-H2. The human Hodgkin lymphoma T cell line (KM-H2) was purchased from the Leibniz Institute DSMZ-German Collection of Microorganisms and Cell Cultures, Braunschweig, Germany. 3-5×10^6 KM-H2 cells were grown in 4 mL RPMI 1640 per well in 6-well-plates (Nunc, Wiesbaden, Germany). All eukaryotic cells were cultured in 5% CO2 at 37° C. (HeraCell 240 and Heraeus BDD 6220, Thermo Fisher Scientific, Waltham, USA). Viability of cells after treatment with bacterial supernatants was assessed by trypan blue, 7-AAD and CellTiter-Blue® staining. (FIG. 9A-C)
Quantification of CCL17 and cytokines in eukaryotic cell culture supernatants. CCL17 was quantified in cell culture supernatants of KM-H2 cells using ELISA reagent Quantikine CCL17/TARC, (R&D Systems, Minneapolis, USA) according to the manufacturer's instructions (ELISA reader MRXII, Thermo Fisher Scientifc, Waltham, USA).
Bioassays for screening for immune modulatory activity in probiotic supernatants. Two biological assays based on down-modulation of costimulatory molecules on human DCs, and of CCL17-secretion by a human Hodgkin lymphoma T cell line (KM-H2) were set up. […]
Similarly, 200 μL supernatants were added to 3-5×10^6 KM-H2 cells for 24 h. Supernatants were collected from KM-H2 by centrifugation and stored at −80° C. until quantification of CCL17. […]

N[C@H](Cc1c[nH]c2ccccc12)C(=O)O [D-tryptophan]
activity at 10 µM ([1]; read-out: Percentage of CD40 expressing mature DCs): 15.2 ± 6.5% | activity at 10 µM ([1]; read-out: Percentage of CD80 expressing mature DCs): 12.1 ± 1.7% | activity at 10 µM ([1]; read-out: Percentage of CD83 expressing mature DCs): 7.6 ± 3.3% | activity at 10 µM ([1]; read-out: Percentage of CD86 expressing mature DCs): 24.1 ± 2.7% | activity at 10 µM ([1]; read-out: Percentage of HLA-DR expressing mature DCs): 88.9 ± 3% | IL-10 in DC cultures (human LPS treated DCs; highly enriched DCs): strongly induced | LPS-induced IFN-g, IL-12 and IL-5 in DC cultures (human LPS treated DCs; highly enriched DCs): lowered | Ratio IL-5/IFN-g (human LPS treated DCs; with LPS 0.1 μg/ml): 0.018 | Ratio IL-10/IL-12 (human LPS treated DCs; with LPS 0.1 μg/ml): 0.232 | IFN-g (human LPS treated DCs; with LPS 0.1 μg/ml): 1129.50 pg/mL | IL-5 (human LPS treated DCs; with LPS 0.1 μg/ml): 20.60 pg/mL | IL-10 (human LPS treated DCs; with LPS 0.1 μg/ml): 202.50 pg/mL | IL-12 (human LPS treated DCs; with LPS 0.1 μg/ml): 871.90 pg/mL | Ratio IL-5/IFN-g (human LPS treated DCs; without LPS): 0.470 | Ratio IL-10/IL-12 (human LPS treated DCs; without LPS): 0.690 | IFN-g (human LPS treated DCs; without LPS): 21.90 pg/mL | IL-5 (human LPS treated DCs; without LPS): 10.30 pg/mL | IL-10 (human LPS treated DCs; without LPS): 56.90 pg/mL | IL-12 (human LPS treated DCs; without LPS): 82.50 pg/mL | immune activity of synthetic tryptophan isomers in the CCL17 bioassay [2]: dose dependent immune activity

Reference: patent US10857128B2, “Methods and compositions for treating inflammatory diseases” (Helmholtz Zentrum München Deutsches Forschungszentrum für …, priority 2017, dated 2020)
